Results as given in patent US20210238173A1, “MITOGEN-ACTIVATED PROTEIN KINASE KINASE 7 INHIBITORS” (Yeda Research and Development Co. Ltd., priority 2018, published 2021).

Tests used:
[1] = biological target: LRRK2 (Homo sapiens, UniProt Q5S007); assay: Kinome selectivity screen LRRK2; assay type: biochemical; conditions: 1 μM compound
Method: (§1) Kinome Selectivity Screen:
(§2) Kinase selectivity was assessed using the Life Technologies SelectScreen Kinase Profiling Service in a custom panel of 76 kinases selected to provide broad representative coverage of all kinase families. Kinase activity assays employed either the Z′-LYTE or Adapta assay technologies with ATP concentrations at or near the KM, ATP for each kinase and a test compound concentration of 1 μM.

[2] = biological target: ROCK2 (Homo sapiens, UniProt O75116); assay: Kinome selectivity screen ROCK2; assay type: biochemical; conditions: 1 μM compound
Method: as §1, §2

[3] = tested on: pERK in HEK293 cells; assay: pERK response in HEK293 cells; assay type: cell-based; conditions: at 10 μM
Method: (§3) To rapidly assess the cellular activity (EC50) with full dose response curves of the MKK7 covalent inhibitors, according to some embodiments of the present invention, an in-cell western assay was adapted to a 384 well plate format over traditional western blot, and monitored phospho-JNK (pJNK) levels in response to osmotic shock. We first characterized the dynamics of pJNK in response to sorbitol. Sufficient dynamic range for pJNK is achieved at 20 minutes in HEK293 cells and at 40 minutes in 3T3 and Beas2B cells. The compound's activity was assessed by pre-treating cells with either compound or DMSO for 2 hours, followed by Sorbitol stimulation. The response of pJNK, and its substrates, pc-Jun and pATF2, was measured, as well as pP38, which is a substrate of MKK4 but not MKK7, and pERK in HEK293 cells, and the results are presented in Table 5 below.
(§4) With similar values for pcJun (2.26 μM and 1.67 μM, respectively) and pATF2 (2.79 μM 5.19 μM, respectively).

[4] = biological target: GRK4 (Homo sapiens, UniProt P32298); assay: Kinome selectivity screen GRK4; assay type: biochemical; conditions: 1 μM compound
Method: as §1, §2

[5] = biological target: NEK7 (Homo sapiens, UniProt Q8TDX7); assay: Kinome selectivity screen NEK7; assay type: biochemical; conditions: 1 μM compound
Method: as §1, §2

[6] = biological target: TAOK2 (TAO1) (Homo sapiens, UniProt Q9UL54); assay: Kinome selectivity screen TAOK2; assay type: biochemical; conditions: 1 μM compound
Method: as §1, §2

[7] = biological target: IKBKB (IKK beta) (Homo sapiens, UniProt O14920); assay: Kinome selectivity screen IKBKB; assay type: biochemical; conditions: 1 μM compound
Method: as §1, §2

[8] = tested on: p-cJun in HEK293 cells; assay: p-cJun inhibition in HEK293 cells; assay type: cell-based; conditions: Homo sapiens
Method: HEK293, Beas2B and 3T3 cells were plated 24 hours before procedure on 384 well clear bottom black flat plates (Corning) pre-coated with Fibronectin (Sigma) diluted in PBS to a concentration of 5 μg/ml 45 minutes prior to cells introduction. Cells were plated using Multidrop™ Combi reagent dispenser (Thermo Fisher Scientific). Compound, reagents and antibody dispensing as well as washes were performed with a CyBio liquid handler (Analytik). Cells were pre-incubated with a small molecule or up to 1% DMSO for 2 h before fixation. HEK293, 3T3 or Beas2B cells were treated with 0.6M/0.2M/0.2M D-Sorbitol/PBS (Sigma) for 20/40/40 min. respectively, before fixation. Media was removed and wells were immediately fixed with 150 μl per well of 3.7% formaldehyde/PBS fixing solution for 20 min. Formaldehyde was then aspired and cells were permeabilized with 150 μl of 0.5% Triton x-100/PBS solution for 10 min. After aspiration cells were washed with ice-cold methanol and stored at −20° C., for 10 min. Methanol was aspired and cells were blocked with 150 μl blocking buffer (LICOR) for 90 min. Primary antibody Phospho-SAPK/JNK T183/Y185 (CST; 9251S) was diluted 1:1000 in blocking buffer and was applied 50 μl per well, except control wells to which only blocking buffer was applied, O.N. (16 h) at 4° C. with mild shaking. […] Wells signals were analyzed with Odyssey software. […]
as §3, with “We first characterized the dynamics of pJNK in response to sorbitol. Sufficient dynamic range for pJNK is achieved at 20 minutes in HEK293 cells and at 40 minutes in 3T3 and Beas2B cells.” left out

[9] = biological target: AKT1 (PKB alpha) (Homo sapiens, UniProt P31749); assay: Kinome selectivity screen AKT1; assay type: biochemical; conditions: 1 μM compound
Method: as §1, §2

[10] = biological target: PAK4 (Homo sapiens, UniProt O96013); assay: Kinome selectivity screen PAK4; assay type: biochemical; conditions: 1 μM compound
Method: as §1, §2

[11] = biological target: KDR (VEGFR2) (Homo sapiens, UniProt P35968); assay: Kinome selectivity screen KDR; assay type: biochemical; conditions: 1 μM compound
Method: as §1, §2

[12] = biological target: IGF1R (Homo sapiens, UniProt P08069); assay: Kinome selectivity screen IGF1R; assay type: biochemical; conditions: 1 μM compound
Method: as §1, §2

[13] = biological target: MAP2K4 (MEK4) (Homo sapiens, UniProt P45985); assay: Kinome selectivity screen MAP2K4; assay type: biochemical; conditions: 1 μM compound
Method: as §1, §2

[14] = tested on: pP38 in HEK293 cells; assay: pP38 response in HEK293 cells; assay type: cell-based; conditions: at 10 μM
Method: as §3, §4

[15] = biological target: MAPK14 (p38 alpha) (Homo sapiens, UniProt Q16539); assay: Kinome selectivity screen MAPK14; assay type: biochemical; conditions: 1 μM compound
Method: as §1, §2

[16] = biological target: AURKA (Aurora A) (Homo sapiens, UniProt O14965); assay: Kinome selectivity screen AURKA; assay type: biochemical; conditions: 1 μM compound
[17] = tested on: JNK activation; assay: KTR reporter live cell imaging of JNK activation; assay type: cell-based; conditions: Homo sapiens; HEK293 cells; read-out: EC50 of test and control compounds
Description: As an orthogonal assay for the ICW we used a KTR reporter cell line for JNK activation via live cell imaging.

Sequence of MAP2K4 (MEK4) (P45985 whole entry): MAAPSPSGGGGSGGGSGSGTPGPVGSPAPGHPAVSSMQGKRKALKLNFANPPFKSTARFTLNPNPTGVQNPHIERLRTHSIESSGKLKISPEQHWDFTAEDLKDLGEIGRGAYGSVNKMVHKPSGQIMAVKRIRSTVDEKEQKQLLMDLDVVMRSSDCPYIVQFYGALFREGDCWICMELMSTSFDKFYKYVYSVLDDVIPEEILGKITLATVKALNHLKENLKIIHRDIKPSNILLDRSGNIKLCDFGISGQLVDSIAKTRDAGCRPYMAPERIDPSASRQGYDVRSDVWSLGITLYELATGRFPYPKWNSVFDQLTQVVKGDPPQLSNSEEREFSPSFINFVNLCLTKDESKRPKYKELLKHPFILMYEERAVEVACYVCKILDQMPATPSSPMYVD
Sequence of NEK7 (Q8TDX7 whole entry): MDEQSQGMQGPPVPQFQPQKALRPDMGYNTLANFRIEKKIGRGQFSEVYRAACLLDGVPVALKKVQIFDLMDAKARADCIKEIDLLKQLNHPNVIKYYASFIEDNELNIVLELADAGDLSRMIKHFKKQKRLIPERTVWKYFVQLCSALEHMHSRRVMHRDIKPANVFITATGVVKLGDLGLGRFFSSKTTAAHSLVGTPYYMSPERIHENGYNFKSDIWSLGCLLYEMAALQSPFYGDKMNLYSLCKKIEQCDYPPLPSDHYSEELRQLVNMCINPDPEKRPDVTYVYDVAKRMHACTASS
Sequence of GRK4 (P32298 whole entry): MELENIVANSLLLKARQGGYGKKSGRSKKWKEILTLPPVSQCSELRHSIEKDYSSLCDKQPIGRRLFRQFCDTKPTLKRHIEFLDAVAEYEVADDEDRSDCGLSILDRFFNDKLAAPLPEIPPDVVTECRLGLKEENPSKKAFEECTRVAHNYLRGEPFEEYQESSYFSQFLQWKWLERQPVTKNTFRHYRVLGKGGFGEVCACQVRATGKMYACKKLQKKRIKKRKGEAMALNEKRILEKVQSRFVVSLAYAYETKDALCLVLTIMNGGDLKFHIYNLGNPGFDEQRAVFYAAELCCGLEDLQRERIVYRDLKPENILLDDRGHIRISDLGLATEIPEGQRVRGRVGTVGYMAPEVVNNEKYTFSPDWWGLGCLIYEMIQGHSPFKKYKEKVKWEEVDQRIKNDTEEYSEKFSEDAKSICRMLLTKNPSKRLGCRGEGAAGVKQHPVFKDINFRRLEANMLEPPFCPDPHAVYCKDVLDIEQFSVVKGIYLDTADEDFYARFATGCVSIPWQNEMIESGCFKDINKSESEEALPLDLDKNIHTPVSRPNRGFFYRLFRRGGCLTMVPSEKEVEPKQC
Sequence of KDR (VEGFR2) (P35968 20-1356): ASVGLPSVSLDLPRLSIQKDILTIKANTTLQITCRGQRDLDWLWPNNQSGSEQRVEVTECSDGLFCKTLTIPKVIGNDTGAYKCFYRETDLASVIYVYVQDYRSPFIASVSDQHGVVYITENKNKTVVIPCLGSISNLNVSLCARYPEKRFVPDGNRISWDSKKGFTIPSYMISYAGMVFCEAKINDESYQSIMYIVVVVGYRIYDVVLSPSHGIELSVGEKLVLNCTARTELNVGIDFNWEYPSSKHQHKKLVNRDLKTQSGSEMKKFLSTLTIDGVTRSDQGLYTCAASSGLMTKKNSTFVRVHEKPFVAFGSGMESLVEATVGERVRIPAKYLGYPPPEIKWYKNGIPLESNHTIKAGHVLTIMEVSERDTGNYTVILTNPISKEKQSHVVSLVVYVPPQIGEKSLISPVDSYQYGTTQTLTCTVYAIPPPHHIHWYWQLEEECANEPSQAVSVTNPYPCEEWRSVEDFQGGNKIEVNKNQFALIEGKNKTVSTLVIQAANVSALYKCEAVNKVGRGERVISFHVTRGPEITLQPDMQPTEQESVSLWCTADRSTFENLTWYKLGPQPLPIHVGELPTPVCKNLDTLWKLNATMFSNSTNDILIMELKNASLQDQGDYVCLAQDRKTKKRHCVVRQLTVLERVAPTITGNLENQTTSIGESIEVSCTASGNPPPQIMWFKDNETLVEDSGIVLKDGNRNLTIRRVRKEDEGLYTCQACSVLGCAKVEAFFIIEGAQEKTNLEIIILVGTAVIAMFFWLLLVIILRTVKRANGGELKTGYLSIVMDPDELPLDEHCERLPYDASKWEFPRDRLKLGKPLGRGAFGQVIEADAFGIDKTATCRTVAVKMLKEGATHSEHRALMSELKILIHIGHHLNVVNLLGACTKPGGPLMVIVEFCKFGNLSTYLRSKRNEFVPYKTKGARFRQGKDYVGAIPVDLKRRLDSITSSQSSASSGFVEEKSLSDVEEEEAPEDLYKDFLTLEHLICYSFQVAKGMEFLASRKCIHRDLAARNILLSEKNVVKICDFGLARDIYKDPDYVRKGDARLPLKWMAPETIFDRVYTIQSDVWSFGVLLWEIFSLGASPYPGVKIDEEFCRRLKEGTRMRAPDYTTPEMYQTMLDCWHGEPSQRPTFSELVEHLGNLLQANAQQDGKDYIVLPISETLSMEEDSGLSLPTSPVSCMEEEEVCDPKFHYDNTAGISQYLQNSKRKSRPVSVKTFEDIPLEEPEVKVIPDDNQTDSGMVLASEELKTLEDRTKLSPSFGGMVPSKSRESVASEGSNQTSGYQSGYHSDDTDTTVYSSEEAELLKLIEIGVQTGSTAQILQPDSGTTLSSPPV
Sequence of ROCK2 (O75116 whole entry): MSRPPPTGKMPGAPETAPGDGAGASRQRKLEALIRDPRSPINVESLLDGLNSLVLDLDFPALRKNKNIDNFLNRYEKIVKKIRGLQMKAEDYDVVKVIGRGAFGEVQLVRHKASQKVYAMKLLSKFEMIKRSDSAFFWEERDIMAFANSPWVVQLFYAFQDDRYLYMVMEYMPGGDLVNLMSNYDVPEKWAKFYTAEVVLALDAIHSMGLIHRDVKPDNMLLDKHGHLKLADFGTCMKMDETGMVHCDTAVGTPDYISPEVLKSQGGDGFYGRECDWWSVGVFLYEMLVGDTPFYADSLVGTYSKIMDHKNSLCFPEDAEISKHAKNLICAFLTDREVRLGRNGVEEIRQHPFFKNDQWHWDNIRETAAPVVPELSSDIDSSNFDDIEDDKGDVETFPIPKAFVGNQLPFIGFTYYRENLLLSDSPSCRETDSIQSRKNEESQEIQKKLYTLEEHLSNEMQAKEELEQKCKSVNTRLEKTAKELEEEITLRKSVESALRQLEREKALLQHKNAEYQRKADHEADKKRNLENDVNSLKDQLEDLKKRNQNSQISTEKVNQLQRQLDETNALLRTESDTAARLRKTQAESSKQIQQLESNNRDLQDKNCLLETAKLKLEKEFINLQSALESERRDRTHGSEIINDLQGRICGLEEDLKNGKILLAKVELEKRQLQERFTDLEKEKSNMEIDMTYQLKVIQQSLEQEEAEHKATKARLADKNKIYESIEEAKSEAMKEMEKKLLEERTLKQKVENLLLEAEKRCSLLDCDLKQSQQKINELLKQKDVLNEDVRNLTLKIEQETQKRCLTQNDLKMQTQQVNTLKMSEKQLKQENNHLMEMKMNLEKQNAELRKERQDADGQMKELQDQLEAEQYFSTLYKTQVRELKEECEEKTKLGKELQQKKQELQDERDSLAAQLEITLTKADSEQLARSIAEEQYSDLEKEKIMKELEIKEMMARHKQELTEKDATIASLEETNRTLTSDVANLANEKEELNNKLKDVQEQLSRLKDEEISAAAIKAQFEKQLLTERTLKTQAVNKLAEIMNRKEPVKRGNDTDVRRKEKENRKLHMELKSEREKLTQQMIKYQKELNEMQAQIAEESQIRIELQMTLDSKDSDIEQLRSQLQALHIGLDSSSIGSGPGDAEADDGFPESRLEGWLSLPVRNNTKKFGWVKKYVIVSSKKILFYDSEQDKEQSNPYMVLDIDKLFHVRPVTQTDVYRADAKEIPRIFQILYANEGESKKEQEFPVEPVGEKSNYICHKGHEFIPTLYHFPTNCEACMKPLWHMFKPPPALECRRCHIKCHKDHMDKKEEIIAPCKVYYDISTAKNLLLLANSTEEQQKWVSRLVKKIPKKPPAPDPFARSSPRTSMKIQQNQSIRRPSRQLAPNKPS
Sequence of AKT1 (PKB alpha) (P31749 whole entry): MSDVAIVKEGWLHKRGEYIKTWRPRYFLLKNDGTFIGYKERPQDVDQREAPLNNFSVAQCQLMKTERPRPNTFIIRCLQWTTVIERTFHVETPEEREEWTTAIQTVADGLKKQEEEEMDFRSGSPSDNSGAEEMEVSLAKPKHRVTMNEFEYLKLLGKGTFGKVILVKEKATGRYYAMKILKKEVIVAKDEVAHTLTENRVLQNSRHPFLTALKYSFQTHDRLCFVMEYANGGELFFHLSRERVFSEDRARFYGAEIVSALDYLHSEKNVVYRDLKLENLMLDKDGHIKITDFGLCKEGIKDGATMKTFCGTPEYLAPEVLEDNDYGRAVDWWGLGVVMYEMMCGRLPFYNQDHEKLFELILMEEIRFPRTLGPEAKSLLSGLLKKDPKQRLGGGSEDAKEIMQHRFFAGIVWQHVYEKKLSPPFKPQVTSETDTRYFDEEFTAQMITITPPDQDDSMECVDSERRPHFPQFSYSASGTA
Sequence of PAK4 (O96013 whole entry): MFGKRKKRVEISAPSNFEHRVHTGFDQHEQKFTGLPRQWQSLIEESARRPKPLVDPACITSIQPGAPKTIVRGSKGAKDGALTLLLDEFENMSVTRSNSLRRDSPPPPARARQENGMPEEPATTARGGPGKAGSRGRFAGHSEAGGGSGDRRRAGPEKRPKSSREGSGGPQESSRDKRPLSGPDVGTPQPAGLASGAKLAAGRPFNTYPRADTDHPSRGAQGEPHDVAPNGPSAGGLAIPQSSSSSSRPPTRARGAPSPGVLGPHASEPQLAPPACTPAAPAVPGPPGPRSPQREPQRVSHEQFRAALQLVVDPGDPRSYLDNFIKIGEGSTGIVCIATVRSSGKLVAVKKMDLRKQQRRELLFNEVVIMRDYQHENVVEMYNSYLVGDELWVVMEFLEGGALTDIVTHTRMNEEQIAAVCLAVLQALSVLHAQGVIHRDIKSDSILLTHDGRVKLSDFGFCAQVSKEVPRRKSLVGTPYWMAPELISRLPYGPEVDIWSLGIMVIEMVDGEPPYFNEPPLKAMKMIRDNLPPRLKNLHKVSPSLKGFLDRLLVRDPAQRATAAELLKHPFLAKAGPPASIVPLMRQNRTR

inhibition at 1 µM [1] | inhibition at 1 µM [2] | inhibition at 1 µM [4] | inhibition at 1 µM [5] | inhibition at 1 µM [6] | inhibition at 1 µM [7] | inhibition at 1 µM [9] | inhibition at 1 µM [10] | inhibition at 1 µM [11] | inhibition at 1 µM [12] | inhibition at 1 µM [13] | inhibition at 1 µM [15] | inhibition at 1 µM [16] | EC50 [17] | Structure (SMILES) | decrease in pERK [3] | EC50 [8] | effect on pP38 levels [14] | effect on pERK levels [3]
95% | -2% | -5% | 8% | 12% | -3% | -5% | -11% | 4% | 6% | 79% | 9% | – | – | C=CC(=O)Nc1cccc(-c2n[nH]c3ccccc23)c1 [GO32] | about 25% | 2260 nM | no effect | –
94% | -4% | -3% | 7% | 14% | -5% | -4% | -16% | 6% | 7% | 81% | 16% | 4% | 3300 nM | C=CC(=O)Nc1cccc(-c2n[nH]c3cc(C)ccc23)c1 [GO80] | – | 1670 nM | did not affect | did not affect
